# US20080051466A1, “Isoalpha acid based protein kinase modulation cancer treatment” (Metaproteomics, LLC, priority 2006, published 2008)
# Assays:
# Experiment in all cases: KinaseProfiler Assay
# Format in all cases: biochemical
# CDK5/p35 = CDK5/p35 (Homo sapiens, UniProt Q00535); details: read-out: CDK5/p35, % of Control
# PAK6 = PAK6 (Homo sapiens, UniProt Q9NQU5); details: read-out: PAK6, % of Control
# GSK3β = GSK3β (Homo sapiens, UniProt P49841); details: read-out: GSK3β, % of Control
# DRAK1 = target: T1, DRAK1 (Homo sapiens, UniProt Q9UEE5); details: read-out: DRAK1, % of Control
# T1 sequence (Q9UEE5 1-414): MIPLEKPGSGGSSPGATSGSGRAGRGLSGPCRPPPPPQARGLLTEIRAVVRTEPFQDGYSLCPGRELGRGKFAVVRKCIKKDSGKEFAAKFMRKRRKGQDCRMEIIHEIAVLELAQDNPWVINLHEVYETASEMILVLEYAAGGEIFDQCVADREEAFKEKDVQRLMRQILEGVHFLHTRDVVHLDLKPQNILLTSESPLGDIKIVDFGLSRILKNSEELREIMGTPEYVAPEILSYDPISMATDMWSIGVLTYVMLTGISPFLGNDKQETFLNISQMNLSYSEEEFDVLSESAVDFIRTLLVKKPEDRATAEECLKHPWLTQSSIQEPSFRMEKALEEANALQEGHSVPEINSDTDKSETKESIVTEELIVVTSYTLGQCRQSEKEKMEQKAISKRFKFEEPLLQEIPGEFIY
# PAK5 = PAK5 (Homo sapiens, UniProt Q9P286); details: read-out: PAK5, % of Control
# Abl(T315I) = Abl(T315I) (Homo sapiens, UniProt P00519, T315I); details: read-out: Abl(T315I), % of Control
# GSK3α = GSK3α (Homo sapiens, UniProt P49840); details: read-out: GSK3α, % of Control
# Fes = Fes (Homo sapiens, UniProt P07332); details: read-out: Fes, % of Control
# IRAK1 = IRAK1 (Homo sapiens, UniProt P51617); details: read-out: IRAK1, % of Control
# SGK2 = target: T2, SGK2 (Homo sapiens, UniProt Q9HBY8); details: read-out: SGK2, % of Control
# T2 sequence (Q9HBY8 1-367): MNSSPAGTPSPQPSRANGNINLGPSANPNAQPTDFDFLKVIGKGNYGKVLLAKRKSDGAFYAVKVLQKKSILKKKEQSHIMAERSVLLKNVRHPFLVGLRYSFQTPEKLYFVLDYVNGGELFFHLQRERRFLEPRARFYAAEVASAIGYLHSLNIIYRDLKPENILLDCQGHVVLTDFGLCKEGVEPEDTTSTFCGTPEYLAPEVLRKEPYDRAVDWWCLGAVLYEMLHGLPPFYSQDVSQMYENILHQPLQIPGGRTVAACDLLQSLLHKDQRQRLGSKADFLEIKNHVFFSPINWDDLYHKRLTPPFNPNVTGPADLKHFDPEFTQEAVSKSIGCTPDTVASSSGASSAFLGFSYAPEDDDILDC
# Rsk2 = Rsk2 (Homo sapiens, UniProt P51812); details: read-out: Rsk2, % of Control
# Chain of Rsk2 (P51812 whole entry): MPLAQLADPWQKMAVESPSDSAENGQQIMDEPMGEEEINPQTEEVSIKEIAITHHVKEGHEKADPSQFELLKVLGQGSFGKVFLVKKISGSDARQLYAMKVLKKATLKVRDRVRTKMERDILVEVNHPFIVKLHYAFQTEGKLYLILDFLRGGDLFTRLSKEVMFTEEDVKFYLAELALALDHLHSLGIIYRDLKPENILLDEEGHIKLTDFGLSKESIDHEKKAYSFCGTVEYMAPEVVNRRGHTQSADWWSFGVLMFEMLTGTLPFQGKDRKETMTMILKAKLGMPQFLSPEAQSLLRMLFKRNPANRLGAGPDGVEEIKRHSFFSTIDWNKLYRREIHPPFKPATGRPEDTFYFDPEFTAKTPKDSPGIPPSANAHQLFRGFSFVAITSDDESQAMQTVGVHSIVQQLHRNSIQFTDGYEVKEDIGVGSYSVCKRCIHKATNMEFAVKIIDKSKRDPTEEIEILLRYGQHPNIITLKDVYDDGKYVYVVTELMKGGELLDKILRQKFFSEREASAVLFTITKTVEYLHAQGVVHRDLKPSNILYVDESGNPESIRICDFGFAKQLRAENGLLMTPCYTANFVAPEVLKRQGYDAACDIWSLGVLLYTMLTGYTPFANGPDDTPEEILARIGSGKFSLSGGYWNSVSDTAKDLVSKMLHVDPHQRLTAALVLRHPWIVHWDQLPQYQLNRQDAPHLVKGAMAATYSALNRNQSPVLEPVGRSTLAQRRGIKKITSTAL
# Chain of GSK3α (P49840 whole entry): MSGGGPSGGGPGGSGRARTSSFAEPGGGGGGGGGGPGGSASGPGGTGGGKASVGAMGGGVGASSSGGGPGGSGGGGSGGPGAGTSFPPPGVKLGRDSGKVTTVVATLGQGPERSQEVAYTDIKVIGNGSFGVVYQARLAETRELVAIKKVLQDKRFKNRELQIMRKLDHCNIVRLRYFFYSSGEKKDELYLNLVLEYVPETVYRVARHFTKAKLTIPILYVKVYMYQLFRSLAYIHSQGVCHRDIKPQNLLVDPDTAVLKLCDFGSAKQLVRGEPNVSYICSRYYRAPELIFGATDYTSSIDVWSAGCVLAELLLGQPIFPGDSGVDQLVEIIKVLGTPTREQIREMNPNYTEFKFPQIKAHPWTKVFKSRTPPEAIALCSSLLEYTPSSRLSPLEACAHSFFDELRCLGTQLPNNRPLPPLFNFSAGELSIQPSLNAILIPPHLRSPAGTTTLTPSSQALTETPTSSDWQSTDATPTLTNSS
# Chain of GSK3β (P49841 whole entry): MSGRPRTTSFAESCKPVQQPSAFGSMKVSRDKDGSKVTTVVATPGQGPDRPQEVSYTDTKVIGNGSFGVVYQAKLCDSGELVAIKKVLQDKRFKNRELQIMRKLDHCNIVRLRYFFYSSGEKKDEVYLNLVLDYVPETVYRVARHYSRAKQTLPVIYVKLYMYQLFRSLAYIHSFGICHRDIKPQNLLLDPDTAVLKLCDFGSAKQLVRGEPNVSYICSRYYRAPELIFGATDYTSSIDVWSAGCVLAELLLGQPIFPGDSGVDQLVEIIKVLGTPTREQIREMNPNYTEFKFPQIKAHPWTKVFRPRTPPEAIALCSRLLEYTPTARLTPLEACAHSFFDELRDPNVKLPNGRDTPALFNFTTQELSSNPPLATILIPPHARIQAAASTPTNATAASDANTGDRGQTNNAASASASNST
# Chain of IRAK1 (P51617 whole entry): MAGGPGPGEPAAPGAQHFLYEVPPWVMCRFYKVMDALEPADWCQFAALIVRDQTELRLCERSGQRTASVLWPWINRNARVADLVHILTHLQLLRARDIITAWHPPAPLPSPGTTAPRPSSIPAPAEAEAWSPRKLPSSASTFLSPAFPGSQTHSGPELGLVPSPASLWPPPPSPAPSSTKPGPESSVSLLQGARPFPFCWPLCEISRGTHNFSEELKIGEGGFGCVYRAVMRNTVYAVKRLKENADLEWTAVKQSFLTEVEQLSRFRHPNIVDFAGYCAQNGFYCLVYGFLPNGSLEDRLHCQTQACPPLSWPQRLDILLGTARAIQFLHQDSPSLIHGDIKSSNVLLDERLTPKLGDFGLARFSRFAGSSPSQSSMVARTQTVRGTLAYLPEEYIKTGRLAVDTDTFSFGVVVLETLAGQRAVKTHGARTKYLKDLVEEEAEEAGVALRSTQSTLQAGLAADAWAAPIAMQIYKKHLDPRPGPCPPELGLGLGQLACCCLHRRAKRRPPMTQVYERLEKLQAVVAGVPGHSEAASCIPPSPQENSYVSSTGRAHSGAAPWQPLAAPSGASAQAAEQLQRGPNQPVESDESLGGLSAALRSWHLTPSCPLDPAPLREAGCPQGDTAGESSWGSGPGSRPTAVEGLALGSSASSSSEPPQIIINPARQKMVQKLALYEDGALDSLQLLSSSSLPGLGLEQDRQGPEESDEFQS
# Chain of PAK5 (Q9P286 whole entry): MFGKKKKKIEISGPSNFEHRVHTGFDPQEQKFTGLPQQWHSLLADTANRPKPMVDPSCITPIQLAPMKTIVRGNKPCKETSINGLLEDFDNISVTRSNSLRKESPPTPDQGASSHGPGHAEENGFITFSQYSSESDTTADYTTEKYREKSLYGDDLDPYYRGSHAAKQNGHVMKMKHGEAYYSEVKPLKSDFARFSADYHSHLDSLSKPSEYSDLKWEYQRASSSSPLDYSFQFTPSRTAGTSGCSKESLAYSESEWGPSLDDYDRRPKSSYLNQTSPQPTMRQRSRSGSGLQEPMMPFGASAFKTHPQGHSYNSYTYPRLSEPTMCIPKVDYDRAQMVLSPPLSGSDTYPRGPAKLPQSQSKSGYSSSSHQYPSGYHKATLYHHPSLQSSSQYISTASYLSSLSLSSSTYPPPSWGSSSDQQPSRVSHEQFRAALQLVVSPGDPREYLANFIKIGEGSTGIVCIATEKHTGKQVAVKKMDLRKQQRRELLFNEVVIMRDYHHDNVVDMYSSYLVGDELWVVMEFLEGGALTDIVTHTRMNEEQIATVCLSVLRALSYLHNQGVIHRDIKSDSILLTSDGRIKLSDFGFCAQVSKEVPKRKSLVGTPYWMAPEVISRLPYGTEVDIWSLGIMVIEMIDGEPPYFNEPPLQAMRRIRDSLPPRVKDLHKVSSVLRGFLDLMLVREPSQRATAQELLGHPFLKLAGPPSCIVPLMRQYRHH
# Chain of PAK6 (Q9NQU5 whole entry): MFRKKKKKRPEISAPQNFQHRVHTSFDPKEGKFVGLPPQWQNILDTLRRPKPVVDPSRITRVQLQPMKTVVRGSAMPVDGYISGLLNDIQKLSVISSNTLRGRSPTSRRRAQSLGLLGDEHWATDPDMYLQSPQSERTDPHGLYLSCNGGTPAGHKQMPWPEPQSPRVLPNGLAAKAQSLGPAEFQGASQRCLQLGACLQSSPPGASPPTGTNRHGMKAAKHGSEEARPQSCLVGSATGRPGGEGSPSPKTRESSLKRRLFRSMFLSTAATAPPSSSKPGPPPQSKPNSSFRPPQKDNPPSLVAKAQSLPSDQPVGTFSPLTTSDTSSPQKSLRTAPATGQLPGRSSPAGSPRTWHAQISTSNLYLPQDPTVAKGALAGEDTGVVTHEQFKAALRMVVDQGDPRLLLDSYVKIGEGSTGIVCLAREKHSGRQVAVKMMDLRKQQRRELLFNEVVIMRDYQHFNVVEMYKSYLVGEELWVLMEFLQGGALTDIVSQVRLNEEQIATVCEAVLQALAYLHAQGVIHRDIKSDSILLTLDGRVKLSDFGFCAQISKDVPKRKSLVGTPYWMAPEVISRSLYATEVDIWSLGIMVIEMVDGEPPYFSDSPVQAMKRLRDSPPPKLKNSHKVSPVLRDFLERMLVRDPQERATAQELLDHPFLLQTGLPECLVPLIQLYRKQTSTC
# Chain of Fes (P07332 whole entry): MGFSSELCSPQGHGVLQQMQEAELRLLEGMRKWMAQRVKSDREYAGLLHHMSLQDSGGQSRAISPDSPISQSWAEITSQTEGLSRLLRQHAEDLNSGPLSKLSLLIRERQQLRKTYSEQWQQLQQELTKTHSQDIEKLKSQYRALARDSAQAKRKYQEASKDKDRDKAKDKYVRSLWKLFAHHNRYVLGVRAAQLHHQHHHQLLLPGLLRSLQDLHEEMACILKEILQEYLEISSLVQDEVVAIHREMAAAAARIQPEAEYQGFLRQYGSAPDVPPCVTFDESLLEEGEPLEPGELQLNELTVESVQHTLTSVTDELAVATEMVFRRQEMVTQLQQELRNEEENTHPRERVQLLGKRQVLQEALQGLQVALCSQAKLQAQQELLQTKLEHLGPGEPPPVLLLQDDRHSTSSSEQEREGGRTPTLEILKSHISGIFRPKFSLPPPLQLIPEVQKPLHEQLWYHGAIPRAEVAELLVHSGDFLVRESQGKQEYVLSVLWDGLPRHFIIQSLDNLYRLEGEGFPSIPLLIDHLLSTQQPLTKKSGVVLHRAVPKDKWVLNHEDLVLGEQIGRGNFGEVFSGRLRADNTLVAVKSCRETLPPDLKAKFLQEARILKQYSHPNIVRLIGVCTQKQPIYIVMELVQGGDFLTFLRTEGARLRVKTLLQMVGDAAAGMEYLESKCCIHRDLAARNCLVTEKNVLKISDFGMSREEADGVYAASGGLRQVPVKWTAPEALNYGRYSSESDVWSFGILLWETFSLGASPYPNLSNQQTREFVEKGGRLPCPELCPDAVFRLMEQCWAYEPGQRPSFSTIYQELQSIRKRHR
structure (smiles),measurement,setting,value
"COc1cc(O)c(CC=C(C)C)c(O)c1C(=O)/C=C/c1ccc(O)cc1 [Xanthohumol, xanthohumol]",remaining activity at 25 µg/mL,CDK5/p35; 25 ug/ml,41%
same,remaining activity at 50 µg/mL,CDK5/p35; 50 ug/ml,44%
same,remaining activity at 1 µg/mL,PAK6; 1 ug/ml,105%
same,remaining activity at 5 µg/mL,PAK6; 5 ug/ml,94%
same,remaining activity at 25 µg/mL,PAK6; 25 ug/ml,14%
same,remaining activity at 1 µg/mL,GSK3β; 1 ug/ml,120%
same,remaining activity at 5 µg/mL,GSK3β; 5 ug/ml,99%
same,remaining activity at 25 µg/mL,GSK3β; 25 ug/ml,25%
same,remaining activity at 50 µg/mL,GSK3β; 50 ug/ml,3%
same,remaining activity at 1 µg/mL,DRAK1; 1 ug/ml,133%
same,remaining activity at 25 µg/mL,DRAK1; 25 ug/ml,19%
same,remaining activity at 50 µg/mL,DRAK1; 50 ug/ml,-5%
same,remaining activity at 1 µg/mL,PAK5; 1 ug/ml,106%
same,remaining activity at 5 µg/mL,PAK5; 5 ug/ml,99%
same,remaining activity at 25 µg/mL,PAK5; 25 ug/ml,42%
same,remaining activity at 50 µg/mL,PAK5; 50 ug/ml,5%
same,remaining activity at 1 µg/mL,Abl(T315I); 1 ug/ml,126%
same,remaining activity at 5 µg/mL,Abl(T315I); 5 ug/ml,115%
same,remaining activity at 25 µg/mL,Abl(T315I); 25 ug/ml,16%
same,remaining activity at 1 µg/mL,GSK3α; 1 ug/ml,102%
same,remaining activity at 25 µg/mL,GSK3α; 25 ug/ml,11%
same,remaining activity at 50 µg/mL,GSK3α; 50 ug/ml,-4%
same,remaining activity at 1 µg/mL,Fes; 1 ug/ml,131%
same,remaining activity at 5 µg/mL,Fes; 5 ug/ml,106%
same,remaining activity at 25 µg/mL,Fes; 25 ug/ml,102%
same,remaining activity at 50 µg/mL,Fes; 50 ug/ml,26%
same,remaining activity at 1 µg/mL,IRAK1; 1 ug/ml,129%
same,remaining activity at 5 µg/mL,IRAK1; 5 ug/ml,104%
same,remaining activity at 50 µg/mL,IRAK1; 50 ug/ml,36%
same,remaining activity at 1 µg/mL,SGK2; 1 ug/ml,130%
same,remaining activity at 5 µg/mL,SGK2; 5 ug/ml,110%
same,remaining activity at 50 µg/mL,SGK2; 50 ug/ml,-4%
same,remaining activity at 1 µg/mL,Rsk2; 1 ug/ml,96%
same,remaining activity at 5 µg/mL,Rsk2; 5 ug/ml,43%
same,remaining activity at 25 µg/mL,Rsk2; 25 ug/ml,3%
